Measured values from patent publication US8592419B2, “Ceramides and apoptosis-signaling ligand” (MUSC Foundation for Research Development, priority 2004, dated 2013).

Tested on: lysosomes of DU145 cells
Experiment: Lysosomal stability assay (LysoTracker Red)
Type: cell-based, human
Experimental: Lysosoinal stability assay. Lysosomal stability was measured using the fluorescent dye LysoTracker Red (LTR). Cells were seeded overnight in 60 mm plates. The next day, medium was removed and replaced with medium containing 200 nM LTR. Cells were loaded with LTR for 30 minutes at 37° C. LTR was removed and cells were washed once with PBS, then medium containing the treatment was added for the indicated time. After treatment, cells were lifted with trypsin, washed once in PBS, and resuspended in 0.5 mL growth medium. LTR fluorescence was measured using FACS analysis (564-606 nm) as above. A decrease in fluorescence intensity corresponded to an increase in lysosomal pH, and a minimum of 10,000 events were scored for each sample.

CCCCCCCCCCCCCCN[C@H](CO)[C@H](O)c1ccc([N+](=O)[O-])cc1.Cl [LCL204, (1R,2R) D-threo-2-N-Tetradecylamino-1-(4′-nitrophenyl)-1,3-propandiol hydrochloride]
onset of the effect on lysosomal pH (DU145 cells, 10 μM): as early as five minutes | shift in LTR fluorescence (rise in lysosomal pH) (DU145 cells, 1 hour, LCL204 10 μM, C6-ceramide 30 μM, B13 20 μM): induced the shift in LTR fluorescence | lysosome destabilization versus concentration (DU145 cells, one hour): destabilized lysosomes in a concentration-dependent manner | earliest destabilization of the lysosomes (prostate cancer cells): 5 min
